The source of these data is US7189710B2, “C2-fluoro pyrrolo [2,1−c][1,4]benzodiazepine dimers” (Council of Scientific and Industrial Research, priority 2004, dated 2007).

In experiment [1] the test system is sixty human tumour cells derived from nine cancer types. The experiment is described as follows: NCI in vitro cytotoxicity screen, sixty human tumour cell lines, SRB assay, 48 h (mean graph midpoints). The conditions noted are these: 48 h continuous drug exposure, mean over human tumour cell lines; for Log10LC5O mean graph midpoint (MG_MID): 50% cell death (−50% growth); for GI50: 50% cell growth inhibition, read-out: Log10 GI50 mean graph midpoint (MG_MID) (converted); for Log10 TGI mean graph midpoint (MG_MID): total cell growth inhibition (0% growth). The experiment is classed as cell-based. The protocol: (§1) Biological Activity: In vitro biological activity studies were carried out at National Cancer Institute (USA).
(§2) Cytotoxicity: Compounds IXa and IXc were evaluated for in vitro against sixty human tumour cells derived from nine cancer types (leukemia, non-small-cell lung, colon, CNS, melanoma, ovarian, prostate, and breast cancer). For each compound, dose response curves against each cell line were measured at a minimum of five concentrations at 10 fold dilutions. A protocol of 48 h continuous drug exposure was used and a sulforhodamine B (SRB) protein assay was used to estimate cell viability or growth. The concentration causing 50% cell growth inhibition (GI50), total cell growth inhibition (TGI, 0% growth) and 50% cell death (LC50, −50% growth) compared with the control was calculated.

The test system of experiment [2] is ovarian cancer cell lines. The experiment is described as follows: NCI in vitro cytotoxicity, SRB assay, average per cancer type. Type of experiment: cell-based. The conditions noted are these: Homo sapiens; average of six to eight different cancer cell lines; read-out: Log GI50 (inhibitory concentration), ovarian (converted). The protocol: as §1, §2
(§3) Each cancer type represent the average of six to eight different cancer cell lines.
On the technique in general: Sulforhodamine B stains cellular protein and so reports cell mass.

The subject of experiment [3] is prostate cancer cell lines. The experiment is described as above. The conditions noted are these: Homo sapiens; average of six to eight different cancer cell lines; read-out: Log GI50 (inhibitory concentration), prostate (converted). The experiment is classed as cell-based. The protocol:
as §1, §2, §3

In a further experiment the test system is colon cancer cell lines. The experiment is described as above. The experiment is classed as cell-based. The conditions noted are these: Homo sapiens; average of six to eight different cancer cell lines; read-out: Log GI50 (inhibitory concentration), colon (converted). The protocol: as §1, §2, §3
In a further experiment the test system is breast cancer cell lines. The description is as above. The experiment is classed as cell-based. The conditions noted are these: Homo sapiens; average of six to eight different cancer cell lines; read-out: Log GI50 (inhibitory concentration), breast (converted). The protocol:
as §1, §2, §3

Experiment [4] has as its system melanoma cancer cell lines. Described as above. Type of experiment: cell-based. The conditions noted are these: Homo sapiens; average of six to eight different cancer cell lines; read-out: Log GI50 (inhibitory concentration), melanoma (converted). The protocol:
as §1, §2, §3

Another experiment relates to renal cancer cell lines. Described as above. The conditions noted are these: Homo sapiens; average of six to eight different cancer cell lines; read-out: Log GI50 (inhibitory concentration), renal (converted). The experiment is classed as cell-based. The protocol: as §1, §2, §3
Experiment [5] deals with non-small-cell lung cancer cell lines. The description is as above. The experiment is classed as cell-based. The conditions noted are these: Homo sapiens; average of six to eight different cancer cell lines; read-out: Log GI50 (inhibitory concentration), non-small-cell lung (converted). The protocol: as §1, §2, §3
Experiment [6] deals with leukemia cancer cell lines. Described as above. Type of experiment: cell-based. The conditions noted are these: Homo sapiens; average of six to eight different cancer cell lines; read-out: Log GI50 (inhibitory concentration), leukemia (converted). The protocol: as §1, §2, §3
The next experiment concerns CNS cancer cell lines. The description is as above. Type of experiment: cell-based. The conditions noted are these: Homo sapiens; average of six to eight different cancer cell lines; read-out: Log GI50 (inhibitory concentration), CNS (converted). The protocol:
as §1, §2, §3

In another experiment the test system is SF-268 (CNS). The experiment is described as follows: In vitro one dose primary anticancer assay. The experiment is classed as cell-based, human. The conditions noted are these: one dose at 10^−4 molar concentration. The protocol:
as §1

In a further experiment the test system is MCF7 (Breast). The experiment is described as follows: In vitro one dose primary anticancer assay. Type of experiment: cell-based, human. The conditions noted are these: one dose at 10^−4 molar concentration. The protocol: as §1
In another experiment the test system is NCI-H460 (Lung). The experiment is described as follows: In vitro one dose primary anticancer assay. The conditions noted are these: one dose at 10^−4 molar concentration. Type of experiment: cell-based, human. The protocol:
as §1

For `COc1cc2c(cc1OCCCOc1cc3c(cc1OC)C(=O)N1C[C@@H](F)C[C@H]1C=N3)N=C[C@@H]1C[C@H](F)CN1C2=O` [IXa], the “Log10LC5O mean graph midpoint (MG_MID)” value in [1] is recorded as −4.31. Besides, the GI50 is 6.17 µM in experiment [1]; 4.9 µM in experiment [2]; 6.61 µM in experiment [3]; 5.19 µM with colon cancer cell lines; 3.24 µM with breast cancer cell lines; 3.24 µM in experiment [4]. Besides, the GI50 in the experiment on renal cancer cell lines is 4.84 µM; in experiment [5], 5.52 µM; in experiment [6] it was 2.15 µM; in the experiment with CNS cancer cell lines it was 2.86 µM. Also, the “Log10 TGI mean graph midpoint (MG_MID)” value in experiment [1] is reported as −4.75. Moreover, the “Growth percentages (CNS) SF-268” value with SF-268 (CNS) is 0%. Further, the “Growth percentages (Breast) MCF7” value in the experiment with MCF7 (Breast) was found to be 0%. Moreover, the “Growth percentages (Lung) NCI-H460” value in the experiment with NCI-H460 (Lung) stood at 0%.

Regarding `COc1cc2c(cc1OCCCCCOc1cc3c(cc1OC)C(=O)N1C[C@@H](F)C[C@H]1C=N3)N=C[C@@H]1C[C@H](F)CN1C2=O` [IXc], the “Log10LC5O mean graph midpoint (MG_MID)” value in [1] is recorded as −4.87. Further, the GI50 in experiment [1] was 0.0724 µM; in experiment [2], 0.24 µM; in experiment [3], 0.0372 µM; in the experiment with colon cancer cell lines, 0.0863 µM; with breast cancer cell lines, 0.0583 µM; in experiment [4], 0.05 µM. Also, the GI50 with renal cancer cell lines is 0.0322 µM; in [5], 0.0481 µM; in [6] it was 0.0161 µM; in the experiment with CNS cancer cell lines it was 0.0237 µM. Moreover, in experiment [1], the “Log10 TGI mean graph midpoint (MG_MID)” value is recorded as −6.27. Besides, in the experiment with SF-268 (CNS), the “Growth percentages (CNS) SF-268” value is recorded as 0%. For the same molecule, in the experiment with MCF7 (Breast), the “Growth percentages (Breast) MCF7” value came out at 0%. Also, in the experiment with NCI-H460 (Lung), the “Growth percentages (Lung) NCI-H460” value was found to be 0%.
